Measured values taken from article PMC3163375, “Design, Synthesis and Biological Evaluation of New 5,5-Diarylhydantoin Derivatives as Selective Cyclooxygenase-2 Inhibitors” (Scientia Pharmaceutica, 2011).

What was measured:
ovine COX-1 = target: T1, ovine COX-1 (Ovis aries, UniProt P05979); assay: In vitro COX-1 enzyme inhibition, chemiluminescent enzyme assay kit (Cayman); format: biochemical; details: ovine COX-1/COX-2 assay kit; means of two determinations, deviation < 10% of the mean
T1 construct: purchased Cayman Chemical, Ann Arbor, MI, USA
T1 sequence (P05979 25-600): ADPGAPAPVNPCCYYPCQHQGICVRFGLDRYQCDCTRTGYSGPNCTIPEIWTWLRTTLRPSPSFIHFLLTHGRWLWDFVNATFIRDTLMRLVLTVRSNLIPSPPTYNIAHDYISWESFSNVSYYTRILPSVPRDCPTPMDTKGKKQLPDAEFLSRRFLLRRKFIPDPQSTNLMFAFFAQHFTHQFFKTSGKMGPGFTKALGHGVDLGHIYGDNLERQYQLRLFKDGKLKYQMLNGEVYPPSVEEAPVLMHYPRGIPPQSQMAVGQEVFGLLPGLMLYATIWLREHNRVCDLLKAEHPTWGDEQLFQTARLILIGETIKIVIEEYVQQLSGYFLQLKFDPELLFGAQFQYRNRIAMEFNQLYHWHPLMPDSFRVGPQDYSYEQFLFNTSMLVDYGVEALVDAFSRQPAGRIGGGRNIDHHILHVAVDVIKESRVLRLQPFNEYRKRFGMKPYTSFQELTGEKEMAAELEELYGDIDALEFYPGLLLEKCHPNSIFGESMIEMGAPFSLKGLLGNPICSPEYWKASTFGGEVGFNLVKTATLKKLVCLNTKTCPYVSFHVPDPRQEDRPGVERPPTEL
Procedure: (§1) All of the prepared 5,5-diarylhydantoin derivatives having different substituents at the N-3 hydantoin ring were evaluated to investigate the effect of different alkyls on COX-2 selectivity and potency. The ability of the 5,5-diarylhydantoin 4–8 to inhibit the COX-1 and COX-2 isozymes was determined using chemiluminescent enzyme assays (see enzyme inhibition data in Table 1.) according to our previously reported method.
(§2) The ability of the test compounds listed in Table 1 to inhibit ovine COX-1 and COX-2 (IC50 value, μM) was determined using chemiluminescent enzyme assays kit (Cayman Chemical, Ann Arbor, MI, USA) according to our previously reported method.

ovine COX-2 = target: T2, ovine COX-2 (Ovis aries, UniProt P79208); assay: In vitro COX-2 enzyme inhibition, chemiluminescent enzyme assay kit (Cayman); format: biochemical; details: for Selectivity index (SI): In vitro COX-2 selectivity index (COX-1 IC50/COX-2 IC50); for IC50: ovine COX-1/COX-2 assay kit, means of two determinations, deviation < 10% of the mean
T2 construct: purchased Cayman Chemical, Ann Arbor, MI, USA
T2 sequence (P79208 17-603): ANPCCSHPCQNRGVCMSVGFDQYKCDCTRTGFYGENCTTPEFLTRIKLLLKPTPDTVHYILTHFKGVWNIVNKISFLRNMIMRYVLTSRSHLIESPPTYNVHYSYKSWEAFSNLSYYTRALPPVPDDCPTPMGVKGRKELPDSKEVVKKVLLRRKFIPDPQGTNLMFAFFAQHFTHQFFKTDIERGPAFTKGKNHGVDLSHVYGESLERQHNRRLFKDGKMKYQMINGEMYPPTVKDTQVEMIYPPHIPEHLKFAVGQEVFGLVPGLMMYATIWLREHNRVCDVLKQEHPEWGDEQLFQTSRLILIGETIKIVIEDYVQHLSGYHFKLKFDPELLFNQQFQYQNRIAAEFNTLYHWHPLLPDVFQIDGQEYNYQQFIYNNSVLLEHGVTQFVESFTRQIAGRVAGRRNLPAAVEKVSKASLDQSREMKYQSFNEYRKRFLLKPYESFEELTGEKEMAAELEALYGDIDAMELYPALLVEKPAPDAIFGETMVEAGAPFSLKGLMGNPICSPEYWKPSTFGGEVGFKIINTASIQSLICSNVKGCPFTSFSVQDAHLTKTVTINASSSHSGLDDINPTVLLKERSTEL
Procedure: as §1, §2

Compound: CS(=O)(=O)c1ccc(C2(c3ccccc3)NC(=O)NC2=O)cc1 (stereo not shown) [Compound 4, 5-[4-(Methylsulfonyl)phenyl]-5-phenylimidazolidine-2,4-dione]
- IC50 (ovine COX-1): > 100000 nM
- Selectivity index (SI) (ovine COX-2): >1298
- IC50 (ovine COX-2): 77 nM

Compound: CN1C(=O)NC(c2ccccc2)(c2ccc(S(C)(=O)=O)cc2)C1=O (stereo not shown) [Compound 5, 3-Methyl-5-[4-(methylsulfonyl)phenyl]-5-phenylimidazolidine-2,4-dione]
- IC50 (ovine COX-1): 22700 nM
- Selectivity index (SI) (ovine COX-2): 280.1
- IC50 (ovine COX-2): 81 nM
- melting point: 212 to 214 °C

Compound: CCN1C(=O)NC(c2ccccc2)(c2ccc(S(C)(=O)=O)cc2)C1=O (stereo not shown) [Compound 6, 3-Ethyl-5-[4-(methylsulfonyl)phenyl]-5-phenylimidazolidine-2,4-dione]
- IC50 (ovine COX-1): 20200 nM
- Selectivity index (SI) (ovine COX-2): 206.2
- IC50 (ovine COX-2): 98 nM
- melting point: 91 to 92 °C

Compound: CCCN1C(=O)NC(c2ccccc2)(c2ccc(S(C)(=O)=O)cc2)C1=O (stereo not shown) [Compound 7, 5-[4-(Methylsulfonyl)phenyl]-5-phenyl-3-propylimidazolidine-2,4-dione]
- IC50 (ovine COX-1): 12000 nM
- Selectivity index (SI) (ovine COX-2): 70.2
- IC50 (ovine COX-2): 171 nM
- melting point: 82 to 83 °C

Compound: C=CCN1C(=O)NC(c2ccccc2)(c2ccc(S(C)(=O)=O)cc2)C1=O (stereo not shown) [Compound 8, 5-[4-(Methylsulfonyl)phenyl]-5-phenyl-3-(prop-2-en-1-yl)imidazolidine-2,4-dione]
- IC50 (ovine COX-1): 15000 nM
- Selectivity index (SI) (ovine COX-2): 151.1
- IC50 (ovine COX-2): 99 nM
- melting point: 129 to 130 °C
